# Experimental data: ChEMBL document CHEMBL1201862, “PubChem BioAssay data set” (2004)
#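 Five concentrations, 48 hours, 96-well plates. At the GI50, growth is halved.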 Activity calls are given as the source filed them. Rule as the data show it: active = GI50 up to about 1.1 µM and inactive = higher.
# Key:
# Experiment in all cases: DTP human tumour cell line panel, 48 h
# [1] = test system: 786-0
# [2] = test system: NCI-H522
# [3] = test system: COLO 205
# [4] = test system: OVCAR-8
# [5] = test system: IGROV-1
# [6] = test system: M14
# [7] = test system: UO-31
# [8] = test system: NCI-H460
# [9] = test system: RXF 393
# [10] = test system: ACHN
# [11] = test system: SK-MEL-28
# [12] = test system: OVCAR-3
# [13] = test system: NCI-H23
# [14] = test system: KM12
# [15] = test system: SW-620
# [16] = test system: HCT-116
# [17] = test system: HOP-92
SMILES,GI50 [1],GI50 [2],GI50 [3],GI50 [4],GI50 [5],GI50 [6],GI50 [7],GI50 [8],GI50 [9],GI50 [10],GI50 [11],GI50 [12],GI50 [13],GI50 [14],GI50 [15],GI50 [16],GI50 [17]
C=CC1(C)CC(=O)C2(O)C(C)(O1)C(OC(C)=O)C(O)C1C(C)(C)CCC(O)C12C (stereo unspecified),> 100 µM (inactive),132 µM (inactive),104 µM (inactive),> 76.4 µM (inactive),47.3 µM (inactive),> 100 µM (inactive),30.5 µM (inactive),89.1 µM (inactive),7.62 µM (inactive),> 100 µM (inactive),> 150 µM (inactive),> 150 µM (inactive),115 µM (inactive),0.863 µM (active),> 150 µM (inactive),128 µM (inactive),> 150 µM (inactive)
Cc1cnc2c(c1)C(=O)C1=C(OC(C)(C)CC1O)C2=O (stereo unspecified),14.9 µM (inactive),15.8 µM (inactive),16.7 µM (inactive),15 µM (inactive),15.2 µM (inactive),16.4 µM (inactive),15.7 µM (inactive),11 µM (inactive),15.5 µM (inactive),15.2 µM (inactive),17.3 µM (inactive),11.1 µM (inactive),10.7 µM (inactive),> 100 µM (inactive),14.7 µM (inactive),14.4 µM (inactive),16.7 µM (inactive)
NC1=C(NC(=O)Cc2ccc(F)cc2)C(=O)c2ccccc2C1=O,37.7 µM (inactive),22.7 µM (inactive),68.2 µM (inactive),33.1 µM (inactive),23.4 µM (inactive),43.8 µM (inactive),58.1 µM (inactive),> 82.2 µM (inactive),24.6 µM (inactive),59 µM (inactive),> 100 µM (inactive),26.4 µM (inactive),12.2 µM (inactive),> 76.9 µM (inactive),> 100 µM (inactive),32 µM (inactive),23.8 µM (inactive)
C=CCNC1=NC(=O)C(CC(=O)Nc2ccc([N+](=O)[O-])cc2[N+](=O)[O-])S1 (stereo unspecified),> 100 µM (inactive),> 100 µM (inactive),> 100 µM (inactive),> 100 µM (inactive),> 100 µM (inactive),> 100 µM (inactive),84.5 µM (inactive),> 100 µM (inactive),> 100 µM (inactive),90.6 µM (inactive),> 100 µM (inactive),> 100 µM (inactive),> 100 µM (inactive),> 100 µM (inactive),> 100 µM (inactive),> 100 µM (inactive),85.7 µM (inactive)
CC[C@@]12N=C(N(C)C)C[C@]1(O)ON=C2C,> 100 µM (inactive),> 100 µM (inactive),> 100 µM (inactive),> 100 µM (inactive),> 100 µM (inactive),> 100 µM (inactive),> 100 µM (inactive),> 100 µM (inactive),> 100 µM (inactive),> 100 µM (inactive),> 100 µM (inactive),> 100 µM (inactive),> 100 µM (inactive),> 100 µM (inactive),> 100 µM (inactive),> 100 µM (inactive),> 100 µM (inactive)
O=C(O)c1ccc(C2=Cc3cc(Cl)ccc3OC2)cc1,> 100 µM (inactive),> 100 µM (inactive),> 100 µM (inactive),> 100 µM (inactive),> 100 µM (inactive),> 100 µM (inactive),90.4 µM (inactive),> 100 µM (inactive),> 100 µM (inactive),> 100 µM (inactive),> 100 µM (inactive),> 100 µM (inactive),> 100 µM (inactive),> 100 µM (inactive),> 100 µM (inactive),> 100 µM (inactive),> 100 µM (inactive)
CN(C)CCOc1cccc2c1C(=O)c1ccccc1C2=O,17.6 µM (inactive),6.52 µM (inactive),4.38 µM (inactive),9.48 µM (inactive),16.5 µM (inactive),13.5 µM (inactive),4.52 µM (inactive),5.36 µM (inactive),13.8 µM (inactive),12 µM (inactive),15.3 µM (inactive),17.9 µM (inactive),11.8 µM (inactive),10.8 µM (inactive),8.32 µM (inactive),4.58 µM (inactive),11.8 µM (inactive)
CC(C)(C)c1cc(C(=O)O)c2c(c1)C(=O)OC2(c1ccccc1)c1ccccc1C(=O)O (stereo unspecified),> 100 µM (inactive),0.206 µM (active),41.1 µM (inactive),> 100 µM (inactive),–,> 100 µM (inactive),> 100 µM (inactive),> 100 µM (inactive),> 100 µM (inactive),77.3 µM (inactive),> 100 µM (inactive),> 100 µM (inactive),> 100 µM (inactive),> 100 µM (inactive),> 100 µM (inactive),> 100 µM (inactive),> 100 µM (inactive)
CC(C)(C)OC(=O)N1N=NC2C3OC(CC3=O)C21 (stereo unspecified),> 100 µM (inactive),> 100 µM (inactive),> 100 µM (inactive),> 100 µM (inactive),> 100 µM (inactive),> 100 µM (inactive),> 100 µM (inactive),> 100 µM (inactive),> 10 µM (inactive),> 100 µM (inactive),> 100 µM (inactive),> 100 µM (inactive),> 100 µM (inactive),> 10 µM (inactive),> 100 µM (inactive),> 100 µM (inactive),> 100 µM (inactive)
CSc1ccc(C2OC(=O)c3ccccc32)c2ccccc12 (stereo unspecified),> 100 µM (inactive),51.8 µM (inactive),> 100 µM (inactive),> 100 µM (inactive),98.9 µM (inactive),> 100 µM (inactive),39.7 µM (inactive),> 100 µM (inactive),> 100 µM (inactive),88.5 µM (inactive),> 100 µM (inactive),–,–,78 µM (inactive),> 100 µM (inactive),87.5 µM (inactive),49 µM (inactive)
Cc1ccccc1-c1c(N)nc(N)nc1C(=O)Nc1nccs1,> 100 µM (inactive),> 100 µM (inactive),> 100 µM (inactive),> 100 µM (inactive),> 100 µM (inactive),> 100 µM (inactive),> 100 µM (inactive),> 100 µM (inactive),> 100 µM (inactive),> 100 µM (inactive),> 100 µM (inactive),> 100 µM (inactive),> 100 µM (inactive),> 100 µM (inactive),> 100 µM (inactive),> 100 µM (inactive),> 100 µM (inactive)
COC(C(=O)NCCCCNC(=O)C(OC)c1ccccc1)c1ccccc1 (stereo unspecified),> 100 µM (inactive),> 100 µM (inactive),> 100 µM (inactive),> 100 µM (inactive),> 100 µM (inactive),> 100 µM (inactive),> 100 µM (inactive),> 100 µM (inactive),> 100 µM (inactive),> 100 µM (inactive),> 100 µM (inactive),> 100 µM (inactive),> 100 µM (inactive),> 100 µM (inactive),> 100 µM (inactive),> 100 µM (inactive),> 100 µM (inactive)
